Source: patent US11129899B1, “Methotrexate derivatives and uses thereof” (S.S. Manufacturing Co., Ltd, priority 2021, dated 2021)
pIC50: −log10 of the molar value.

Assays:
MCF-7 cells = assay: cells; assay type: cell-based; settings: Homo sapiens, MCF7, 24 h, read-out: IC50 (cytotoxicity)
Procedure: The human breast cancer cell line, MCF-7, was obtained from American Type Cell Collection (ATCC) (Rockville, Mo., U.S.A.). The cells were cultured to 70-80% confluence in Dulbecco's modified Eagle medium (DMEM) (Gibco, Grand Island, N.Y., U.S.A.) with 10% fetal bovine serum (FBS) (Gibco) at 37° C. and 5% CO2. MCF-7 cells were plated overnight in a 96-well plate (4,000 cells per well). […] Next, 10 μl/well of WST-1/ECS solution from the Quick Cell Proliferation Colorimetric Assay Kit (BioVision, Inc., Milptas, Calif., U.S.A.) was added, and the solution was incubated for 2 hours at 37° C. and 5% CO2. Absorbance was measured at 480 nm with the Biochrom Anthos 2010 microplate reader (Biochrom Ltd., Cambourne, Cambridge, UK). The half maximal inhibitory concentrations (IC50) were calculated from log-linear regression from the absorbance optical density (OD).

Lipid solubility in oil = assay type: physicochemical
Procedure: Embodied compound or Methrotrexate in DMSO (3 μg/μl) were dissolved in olive oil, canola oil and sunflower oil(Sigma-Aldrich (St. Louis, Mo., USA)) at 40° C. The suspended were vortexed and centrifuged at 3000 RPM, 10 mins periodically. Oil solvent volume was stepwise increased till completely soluble was observed and the soluble concentration were determined (Table 2). The solutions were left at 24° C. overnight and were centrifuged at 5000 RPM for 20 mins. Ten microliter of embodied compound in oils were added to 100 μl deionized (DI) water. The suspensions were vigorously vortex and left at room temperature.

[1] = target: T1, Dihydrofolate reductase (DHFR) (Homo sapiens, UniProt P00374); assay: Dihydrofolate reductase (DHFR) inhibitor assay (Sigma-Aldrich DHFR assay kit); assay type: biochemical
T1 construct: purchased Sigma-Aldrich
T1 sequence (P00374 1-187): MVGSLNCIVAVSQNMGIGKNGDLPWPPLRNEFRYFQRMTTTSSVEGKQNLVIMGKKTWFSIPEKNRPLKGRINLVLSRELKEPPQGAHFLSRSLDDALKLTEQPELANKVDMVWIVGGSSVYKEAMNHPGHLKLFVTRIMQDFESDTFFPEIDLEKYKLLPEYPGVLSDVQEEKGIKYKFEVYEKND
Procedure: According to the supplier protocol, the activity of DHFR reductase was measured at […], every 15 seconds for 2.5 minutes, with the Biochrom Anthos 2010 microplate reader (Biochrom Ltd., Cambourne, Cambridge, UK). The enzymatic activity was calculated by the following formula: […]

Row | Structure (SMILES) | pIC50 (MCF-7 cells) | Solubility in Oil (40° C.) (Lipid solubility in oil; Canola Oil) | Solubility in Oil (40° C.) (Lipid solubility in oil; Olive Oil) | Solubility in Oil (40° C.) (Lipid solubility in oil; Sunflower Oil) | Dihydrofolate reductase (DHFR) activity ([1]; inhibitor 5 mM [sic]) | Dihydrofolate reductase (DHFR) activity ([1]; inhibitor 5 mM [sic], % of no inhibitor) | Dihydrofolate reductase (DHFR) activity ([1]; inhibitor 50 mM [sic]) | Dihydrofolate reductase (DHFR) activity ([1]; inhibitor 50 mM [sic], % of no inhibitor) | Dihydrofolate reductase (DHFR) activity ([1]; inhibitor 500 mM [sic]) | Dihydrofolate reductase (DHFR) activity ([1]; inhibitor 500 mM [sic], % of no inhibitor)
1 | CC(C)CCC[C@@H](C)[C@H]1CC[C@H]2[C@@H]3CC=C4C[C@@H](OC(=O)NCCCCNCCCNC(=O)[C@H](CCC(=O)O)NC(=O)c5ccc(N(C)Cc6cnc7nc(N)nc(N)c7n6)cc5)CC[C@]4(C)[C@H]3CC[C@]12C [Embodied compound, (4S)-4-{[3-({4-[({[(1R,3aS,3bS,7S,9aR,9bS,11aR)-9a,11a-dimethyl-1-[(2R)-6-methylheptan-2-yl]-1H,2H,3H,3aH,3bH,4H,6H,7H,8H,9H,9aH,9bH,10H,11H,11aH-cyclopenta[a]phenanthren-7-yl]oxy}carbonyl)amino]butyl}amino)propyl]carbamoyl}-4-[(4-{[(2,4-diaminopteridin-6-yl)methyl](methyl)amino}phenyl)formamido]butanoic acid] | 4.22 | 81.3 mg/100 ml | 48.1 mg/100 ml | 103.6 mg/100 ml | 1.261 Unit/mgP | 8.41% | 0.561 Unit/mgP | 3.74% | 0.561 Unit/mgP | 3.74%
2 | CN(Cc1cnc2nc(N)nc(N)c2n1)c1ccc(C(=O)N[C@@H](CCC(=O)O)C(=O)O)cc1 [MTX, (2S)-2-[(4-{[(2,4-diaminopteridin-6-yl)methyl](methyl)amino}phenyl)formamido]pentanedioic acid, reference compound] | 2.49 | less than 0.1 mg/100 ml | less than 0.1 mg/100 ml | less than 0.1 mg/100 ml |  |  |  |  |  | 
